Reference: patent publication US20120276064A1, “METHODS AND COMPOSITIONS FOR REJUVENATION AND EXPANSION OF STEM CELLS” (priority 2011, published 2012)
Entries after “also recorded” stand apart in the source; their conditions may differ.

Tests used:
[1] = test system: old MuSCs transplanted into notexin-injured old muscle; experiment: Syngeneic transplantation of cultured old MuSC progeny into notexin-injured old C57BL/6 muscles, engraftment; format: in vivo, mouse
Protocol: MuSC transplantation. MuSCs were transplanted immediately following FACS isolation or after collection from cell culture directly into the tibialis anterior muscle of recipient mice as previously described. Cells from GFP/Luciferase or Myf5^nLacZl+/Luciferase mice were transplanted into gender-matched, hindlimb-irradiated NOD/SCID (Jackson) mice. NOD/SCID (2-4 months of age, median 2 months) mice were anesthetized with ketamine (2.4 mg per mouse) and xylazine (240 μg per mouse) by intraperitoneal injection then were irradiated by a single dose of 18 Gy administered to the hindlimbs, with the rest of the body shielded in a lead jig. Transplantation was performed within three days post-irradiation. […] Freshly isolated or cultured cells were counted by hemocytometer and resuspended at desired cell concentrations in PBS with 2.5% goat serum and 1 mM EDTA. Cells were collected from hydrogel cultures by incubation with 0.5% trypsin in PBS for 2 min at 37° C. and counted using a hemocytometer. […]
Bioluminescence imaging. […] Digital images were recorded and analyzed using Living Image software (Caliper LifeSciences). Images were analyzed with a consistent region-of-interest (ROI) placed over each hindlimb to calculate a bioluminescence signal. […]

[2] = test system: tibialis anterior muscle of notexin-injured old mice; experiment: In vivo force measurements after transplantation of cultured old MuSC progeny; set-up: species or system mouse; details: injured old muscles transplanted with progeny of SB-treated old MuSCs; two months post-injury
[3] = test system: MuSCs transplanted into tibialis anterior muscle; experiment: Transplantation of cultured MuSCs into irradiated NOD/SCID mice, engraftment by bioluminescence imaging; format: in vivo, mouse; details: for Improvement of transplantation function of MuSCs cultured on rigid hydrogels: young and old MuSCs, rigid (~10^6 kPa) hydrogel, 10 μM, one week, 100 cells transplanted
Protocol: MuSC transplantation. MuSCs were transplanted immediately following FACS isolation or after collection from cell culture directly into the tibialis anterior muscle of recipient mice as previously described. Cells from GFP/Luciferase or Myf5^nLacZl+/Luciferase mice were transplanted into gender-matched, hindlimb-irradiated NOD/SCID (Jackson) mice. NOD/SCID (2-4 months of age, median 2 months) mice were anesthetized with ketamine (2.4 mg per mouse) and xylazine (240 μg per mouse) by intraperitoneal injection then were irradiated by a single dose of 18 Gy administered to the hindlimbs, with the rest of the body shielded in a lead jig. Transplantation was performed within three days post-irradiation. In syngeneic transplant studies, cells from old C57BL/6 mice were transplanted into gender-matched, littermate old C57BL/6 mice (Jackson) following culture for one week on soft hydrogels. Specifically, old C57BL/6 MuSCs were infected with a GFP/Luciferase lentivirus added at day 2 of culture for 24 hours. Recipient old C57BL/6 mice were acutely injured by a single 10 μl intramuscular injection of notexin (10 μg/ml; Latoxan, France) two days prior to cell transplantation, but were not irradiated. Freshly isolated or cultured cells were counted by hemocytometer and resuspended at desired cell concentrations in PBS with 2.5% goat serum and 1 mM EDTA. Cells were collected from hydrogel cultures by incubation with 0.5% trypsin in PBS for 2 min at 37° C. and counted using a hemocytometer. Cells were transplanted by intramuscular injection into the tibialis anterior muscle in a 10 μl volume.
Tissue histology. Recipient tibialis anterior muscle tissues were prepared for histology as previously described to analyze GFP expression. Transverse sections were incubated with anti-laminin (Millipore, Billerica, Calif.), anti-GFP (Invitrogen) antibodies, and/or anti-β-galactosidase (Abcam, Cambridge, Mass.) with appropriate secondary antibodies (Invitrogen). Nuclei were counter-stained with Hoechst 33342 (Invitrogen). Images were acquired with an AxioPlan2 epi-fluorescent microscope (Carl Zeiss Microimaging, Thornwood, N.Y.) with Plan NeoFluar 10×/0.30NA or 20×/0.75NA objectives (Carl Zeiss) and an ORCA-ER digital camera (Hamamatsu Photonics, Bridgewater, N.J.). Digital images were captured in OpenLab software (Improvision, Waltham, Mass.) and assembled in Photoshop software (Adobe, San Jose, Calif.) with consistent contrast adjustments across all images from the same stain.
Bioluminescence imaging. Bioluminescence imaging was performed using a Xenogen-100 system, as previously described. Briefly, mice were anesthetized under isofluorane and 100 μL luciferin (0.1 mmol/kg; Caliper LifeSciences, Hopkinton, Mass.) in PBS was administered by intraperitoneal injection. Following luciferin administration, images were acquired every minute for 15 min. Images acquired at 12 min post-luciferin injection were used for analysis. Digital images were recorded and analyzed using Living Image software (Caliper LifeSciences). Images were analyzed with a consistent region-of-interest (ROI) placed over each hindlimb to calculate a bioluminescence signal. A bioluminescence signal value of 80,000 photons/s was used to define a engraftment threshold, as this level corresponds to the histological detection of one or more GFP^+ myofiber (see FIG. 8A). BLI imaging was performed one month post-transplant unless otherwise stated.
(§1) MuSC culture and treatment. Following isolation, MuSCs were pelleted and resuspended into myogenic cell culture medium containing DMEM/F10 (50:50), 15% FBS, 2.5 ng/ml bFGF, and 1% penicillin/streptomycin. MuSCs were seeded at 1000 cells per well (24-well plate size wells, 2.0 cm^2 surface area) on laminin-tethered hydrogels of either 12 kPa (soft) or ˜10^6 kPa (rigid) rigidities. Cells were maintained at 37° C. in 5% CO2. Media was changed daily. […]

[4] = test system: young and old MuSCs; experiment: Bulk proliferation of MuSCs in soft hydrogel culture; format: cell-based, mouse; details: soft (12 kPa) hydrogel, 10 μM, one week
Protocol: as §1
Proliferation assays. MuSC proliferation in hydrogel culture was assessed at both the clonal and bulk levels. […] Cell proliferation was monitored by time-lapse microscopy from 12 hours (day 0) to four days post-seeding as described previously using a PALM/AxioObserver Z1 system (Carl Zeiss MicroImaging) with custom environmental control chamber and motorized stage. Images were recorded every 20 min at 5× magnification. […] After one week, cells were trypsinized and counted on a hemocytometer.

Oc1ccc(-c2nc(-c3ccncc3)c(-c3ccc(F)cc3)[nH]2)cc1 [SB202190]
Contribution to myofibers (histology) ([1]; progeny of 100 SB-treated old MuSCs, old recipient muscle, two months after transplantation): substantial contribution to myofibers | Engraftment frequency in aged syngeneic recipient muscle ([1]; progeny of 100 old MuSCs cultured with 10 μM SB, notexin-injured old C57BL/6 mice, one month): 88% | Specific tetanus force versus pre-injury levels [2]: restored | Specific twitch force versus pre-injury levels [2]: exceeded | Engraftment frequency for 100-cell transplants ([3]; old MuSCs cultured one week on soft hydrogel with 10 μM, one month post-transplant): 41% | Transplant engraftment frequency of the progeny of 10 old MuSCs ([3]; old MuSCs one week on soft hydrogels + SB (~300 cells), one month post-transplant): 79% | Extent of engraftment (BLI and histology) compared to freshly isolated MuSCs ([3]; progeny of 10 old MuSCs after one week on soft hydrogels + SB, listed as SB): not as robust; also recorded: slightly reduced regenerative extent | Engraftment frequency for 100-cell transplants ([3]; young MuSCs cultured one week on soft hydrogel with 10 μM, one month post-transplant): 45% | Improvement of transplantation function of MuSCs cultured on rigid hydrogels [3]: does not support significant improvement | Improvement of transplantation function of MuSCs cultured on rigid hydrogels ([3]; listed as SB): did not support a similar SB-mediated improvement | Increase in total cell numbers (relative to seeding) [4]: ~30 fold | Stimulation of proliferation of hydrogel-cultured MuSCs (in words) [4]: profound stimulation of proliferation
